# Where two headings read alike, the source gives them in different places. Square brackets hold non-standard residues; d marks the D form. Peptide text beside a SMILES is read from it. Hica(2S) = CC(C)C[C@H](O)C(=O)O; dHica = CC(C)C[C@@H](O)C(=O)O; βAla = NCCC(=O)O
# Experiments:
# Type in all cases: cell-based
# [1] = system: A549 human lung adenocarcinoma cell line; test: MTT cytotoxicity assay, A549; conditions: A549 cells, 72 h treatment, absorbance 562 nm (reference 630 nm), read-out: IC50 Values, cytotoxicity against A549
# Protocol: (§1) The cytotoxicity of the compound against A549 and NCI-1944 lines was determined by using 3-(4,5-dimethyl-2-thiazolyl)-2,5-diphenyl-2-H-tetrazolium bromide (MTT). The cells were maintained in DMEM containing 10% (v/v) fetal bovine serum (FBS) and 0.4% (v/v) penicillin−streptomycin solution (10,000 units/mL penicillin and 10,000 μg/mL streptomycin, 100X) at 37 °C under 5% CO2. After 24 h of adherent cell growth, different concentrations of the compounds, positive control adriamycin (ADM), and blank control (methanol) were added to 96-well plates. After 72 h, 20 μL of MTT solution was added. The absorbance value (detection wavelength is 562 nm and reference wavelength is 630 nm) was measured on the microplate reader, and the IC50 value of each compound was calculated.
# [2] = system: NCI-H1944 human lung adenocarcinoma cell line; test: MTT cytotoxicity assay, NCI-H1944; conditions: NCI-H1944 cells, 72 h treatment, absorbance 562 nm (reference 630 nm), read-out: IC50 Values, cytotoxicity against NCI-H1944
# Protocol: as §1
# Saccharomyces cerevisiae [3] = test: Growth time-OD600 curve at MIC80, S. cerevisiae; conditions: compound at its MIC80 concentration, OD600 at 8-32 h, 37 °C, n = 3
# Protocol: (§2) The strain was grown to OD600 = 0.3 in LB broth medium and diluted 100-fold. Aliquots (200 μL) of the diluted suspensions were placed into 96-well microtiter plates, and compounds 1 and 4 at the concentration of MIC80 were cultured in the plate at 37 °C. The absorbance value was measured at OD600 at 8 h, 12 h, 16 h, 20 h, 24 h, and 32 h.
# Staphylococcus aureus [4] = test: Antimicrobial activity assay (MIC80, OD600), S. aureus; conditions: LB broth, 128-4 μg/mL, 37 °C, 24 h; for MIC80 against S. aureus: 96-well plate
# Protocol: (§3) Strains of S. aureus and S. cerevisiae were used for the antimicrobial activity assay, and compounds 1–7 were evaluated as described. We resuscitated the bacteria and centrifuge them at 8000 rpm for 5 min at 4 °C; we then washed the precipitate twice with PBS. We diluted it with Luria-Bertani (LB) broth medium to the concentration of 5 × 10^5 CFU/mL. Strains were grown to OD600 = 0.3 in LB broth medium and diluted 400-fold. Aliquots (200 μL) of the diluted suspensions were placed into 96-well microtiter plates with isolated compounds at concentrations of 128, 64, 32, 16, 8, and 4 μg/mL and cultured at 37 °C for 24 h. Furazolidone was the positive control and DMSO was used as the negative control. The OD600 values were used to test the antimicrobial rate for MIC80.
# Staphylococcus aureus [5] = test: Growth time-OD600 curve at MIC80, S. aureus; conditions: compound at its MIC80 concentration, OD600 at 8-32 h, 37 °C, n = 3
# Protocol: as §2
# Saccharomyces cerevisiae [6] = test: Antimicrobial activity assay (MIC80, OD600), S. cerevisiae; conditions: LB broth, 128-4 μg/mL, 37 °C, 24 h
# Protocol: as §3
smiles,measurement,setting,value
"CC[C@H](C)[C@@H]1NC(=O)[C@H](CC(C)C)NC(=O)[C@H](CC(C)C)NC(=O)[C@H](CC(C)C)NC(=O)[C@H](CC(C)C)NC1=O [Compound 6, cyclo-(L-Ile-L-Leu-L-Leu-L-Leu-L-Leu)] (cyclo(ILLLL))",IC50,[1],< 50 µM
same,IC50,[2],< 50 µM
"CC(C)C[C@@H]1OC(=O)[C@H](Cc2ccccc2)NC(=O)[C@H](Cc2ccccc2)NC(=O)[C@H](Cc2ccccc2)NC(=O)[C@H](Cc2ccc(O)cc2)NC1=O [Compound 1, avenamide A] (cyclo([Hica(2S)]YFFF))",growth time curve of S. cerevisiae (in words),Saccharomyces cerevisiae [3],exhibited antimicrobial activity against both strains during the measuring time
same,MIC80 against S. aureus,Staphylococcus aureus [4],20.25 µg/mL
same,growth time curve of S. aureus (in words),Staphylococcus aureus [5],exhibited antimicrobial activity against both strains during the measuring time
"CC(C)[C@H]1C(=O)O[C@H](C(C)C)C(=O)N(C)[C@@H](C(C)C)C(=O)O[C@H](C(C)C)C(=O)N(C)[C@@H](C(C)C)C(=O)O[C@H](C(C)C)C(=O)N1C [Compound 3, enniatin B]",growth time curve of S. cerevisiae (in words),Saccharomyces cerevisiae [3],exhibited antimicrobial activity against both strains during the measuring time
same,MIC80 against S. cerevisiae,Saccharomyces cerevisiae [6]; 96-well plate,16.92 µg/mL
same,MIC80 against S. aureus,Staphylococcus aureus [4],11.08 µg/mL
same,growth time curve of S. aureus (in words),Staphylococcus aureus [5],exhibited antimicrobial activity against both strains during the measuring time
"CC(C)C[C@@H]1NC(=O)[C@H](CC(C)C)NC(=O)[C@H](C(C)C)NC(=O)[C@H](CC(C)C)NC(=O)[C@@H](CC(C)C)NC1=O [Compound 5, cyclo-(L-Leu-L-Leu-D-Leu-L-Leu-L-Val)] (cyclo(LL[dL]LV))",IC50,[1],< 50 µM
same,IC50,[2],< 50 µM
"CC[C@H](C)[C@@H]1NC(=O)[C@H](CC(C)C)NC(=O)[C@H](CC(C)C)NC(=O)CCNC(=O)[C@@H](CC(C)C)OC1=O [Compound 2, avenamide B] (cyclo([dHica][βAla]LLI))",antimicrobial activity against S. cerevisiae (in words),Saccharomyces cerevisiae [6],did not display strong antimicrobial activity
same,antimicrobial activity against S. aureus (in words),Staphylococcus aureus [4],did not display strong antimicrobial activity
"CC[C@H](C)[C@H]1OC(=O)[C@H](C(C)C)N(C)C(=O)[C@@H](C(C)C)OC(=O)[C@H](C(C)C)N(C)C(=O)[C@@H](C(C)C)OC(=O)[C@H](C(C)C)N(C)C1=O [Compound 4, enniatin H]",antimicrobial activity against S. cerevisiae (in words),Saccharomyces cerevisiae [6],did not display strong antimicrobial activity
same,antimicrobial activity against S. aureus (in words),Staphylococcus aureus [4],did not display strong antimicrobial activity
"COc1cccc2c1C(=O)c1c(O)c3c(c(O)c1C2=O)C[C@@](O)(C(=O)CO)C[C@@H]3O[C@H]1C[C@H](N)[C@H](O)[C@H](C)O1 [adriamycin, reference compound]",IC50,[1]; Homo sapiens,4.26 ± 0.17 µM
same,IC50,[2]; Homo sapiens,4.35 ± 0.27 µM

# — publication PMC11643578, “Cytotoxic and Antibacterial Cyclodepsipeptides from an Endophytic Fungus Fusarium avenaceum W8” (Molecules, 2024)
